Laboratory results: patent publication EP2769723A1, “Compounds for use in inhibiting HIV capsid assembly” (priority 2013, dated 2014)
pIC50: −log10 of the molar value. Structures can show the parent of a compound that is named as a salt. Where two headings read alike, the source gives them in different places.

Assays:
[1] = test system: wild type NL4.3 HIV-1; assay: Tissue culture infectivity test, TZM titration of supernatants from infected TZM cells; type: cell-based; conditions: Human immunodeficiency virus 1, TZM; for IC50: read-out: tissue culture IC50 (µM)
Method: Hits selected in the YFP-screen were further evaluated in the tissue culture experiments with cells infected with the wild type NL4.3 HIV-1. The virus for infection was obtained from co-culture of MT4 cells. The MT4 cells co-culture was synchronized for one week and then used for the infection of fresh MT 4 cells. 48 hrs post-infection was the culture supernatant harvested, cleared by the filtration through […] filter and stored in -80 °C in 1 ml aliquots. Amount of virus was quantified by enzyme-linked immuno sorbent assay (ELISA) with antibodies against HIV-1 CA (3 ng of CA/ml) and blue cell assay (1x10^5 IU/ml), which gives 3 x 10^4 IU/ng of CA.
For compounds testing the TZM cells were seeded on 96-well plate in the density 5 x 10^3 cells per well. The culture media was aspirated approx. 16 hrs later and cells were infected by the wild type NLA.3 HIV-1 by addition of 50J..il of prepared virus stock diluted with 50 µl of complete DMEM. The compounds were added twice to ensure that there are not any preassembled viruses present at the time of their addition. Compounds were first added 8 hrs post-infection and then 24 hrs later. In both cases the old culture media were replaced by 100 µl of fresh complete DMEM prior to the compounds addition. Different compounds concentrations were tested, but the DMSO concentration never exceeded 1 % DMSO. As controls were used cells treated only with 1 % DMSO and cells treated with 0,1 µM Lopinavir (HIV-1 protease inhibitor). Supernatant was harvested 24 hrs after the second compound addition, i.e. 56 hrs post-infection. Harvested supernatants were immediately titrated on the fresh TZM cells in aim to perform the infectivity assay (TZM titration), or inactivated by addition of Triton X-100 to the final concentration 0.025 % for further ELISA analysis.
TZM titration was performed on the cells seeded day before on 96-well plate in the density 5 x 10^3 cells per well. The analysis was performed for each compound concentration at three different dilutions and in duplicates. The culture media was aspired and cells were lysed 48 hrs post-infection by addition of 100 µl of SteadyGlo luciferase substrate (Promega) diluted 1 : 1 by complete DMEM. The luminescence signal was measured on Luminoskan Ascent (Thermo Labsystems) after the transfer of 80 µl of lysate to the flat bottom white polystyrene assay plates (Costar).

[2] = test system: TZM cells; assay: in vitro; type: cell-based; conditions: Table 4; non-cytotoxic when values higher than 80 % of 1 % DMSO treated cells
Method: Cytotoxicity of selected hits tested in the assay with NL4.3 infected cells was determined by MTT test. TZM cells were seeded on the previous day on 96-well plate in the density 5 x 10^3 cells per well. The tested compounds were added in different concentrations, but the DMSO concentration never exceeded 1 % DMSO. As controls were used cells treated only with 1 % DMSO (non-toxic concentration) and cells treated with 5 % DMSO (toxic concentration). 20 µl of the CellTiter 96 Aqueous One substrate (Promega) was added to the 100 µl of culture media 48 hrs after the compounds addition and the color development was quantified 4 hrs later by measuring the absorbance at 490 nm on Saphire reader. Compounds were consider non-cytotoxic (at given concentrations) when the measured values were higher than 80 % of the value of 1 % DMSO treated cells.

[3] = target: T1, CA (Human immunodeficiency virus type 1 group M subtype B, UniProt P12493); assay: ALPHA screen (AlphaScreen): inhibition of CAI binding to CA; design: species or system HIV-1; conditions: CAI-biotin peptide / CA-GST; compounds screened at 0.5-100 µM; read-out: α screen IC50
T1 construct: a fusion protein of CA with glutathione-S-transferase (CA-GST)
Method: The AlphaScreen experiments are performed using Perkin Elmer Enspire plate reader in white 96-well ProxiPlates and PBS supplemented with 0.05% Tween20, 2mM DTT, 2% DMSO. First, Streptavidin-coated Donor beads are used to capture the CAI-biotin peptide. In the other solution, a fusion protein of CA with glutathione-S-transferase (CA-GST) is mixed with GSH Acceptor beads. Both mixtures were incubated and then mixed together. To test the ability of prepared organic compounds to inhibit the CAI binding to CA, they are screened at concentrations between 0.5-100 µM and IC50 values are calculated from the influenced signals.
Upon illumination by laser at 680 nm, Donor beads containing the photosensitizer phthalocyanine convert ambient oxygen to an excited form of singlet oxygen ^1O2. Singlet oxygen can within its half-life of ~ 4 µs diffuse approximately 200 nm in solution. If an Acceptor bead is within that proximity, which is mostly upon CA:CAI interaction, energy is transferred from the singlet oxygen to thioxene derivates within the Acceptor and signal at 520 - 620 nm is emitted.

Fc1cc(Nc2nc(-c3ccc(I)cc3)nc3ccccc23)cc(F)c1F [KP-161]
IC50 [1]: ~10 µM
toxicity LC50 (µM) [2]: non-toxic

COCCN(CCOC)c1nc(-c2cccnc2)nc2ccccc12 [OSR-283 HCl]
IC50 [1]: > 10 µM
toxicity LC50 (µM) [2]: non-toxic

O=C(c1ccccc1)c1ccc(Nc2nc(-c3ccncc3)nc3ccccc23)cc1 [OSR-48]
IC50 [1]: > 25 µM
toxicity LC50 (µM) [2]: non toxic

CCOC(=O)c1ccccc1Nc1nc(-c2ccncc2)nc2ccccc12 [AMR-540]
IC50 [1]: > 10 µM
toxicity LC50 (µM) [2]: non-toxic

Fc1cc(F)c(Nc2nc(-c3cccnc3)nc3ccccc23)cc1Br [KP-100]
toxicity LC50 (µM) [2]: non-toxic

COc1ccc(Nc2nc(-c3cc(F)c(F)c(F)c3)nc3ccccc23)cn1 [KP-291]
IC50 [1]: > 10 µM
toxicity LC50 (µM) [2]: non-toxic

O[C@H]1CC[C@H](Nc2nc(-c3cccnc3)nc3ccccc23)CC1 [OSR-183]
IC50 [1]: > 25 µM
toxicity LC50 (µM) [2]: non-toxic

CCOC(=O)c1cccc(Nc2nc(-c3ccncc3)nc3ccccc23)c1 [AMR-541]
IC50 [1]: < 5 µM
toxicity LC50 (µM) [2]: non-toxic

Fc1cc(Nc2nc(N3CCOCC3)nc3ccccc23)cc(F)c1F [KP-268]
IC50 [1]: > 10 µM
toxicity LC50 (µM) [2]: non-toxic

O=[N+]([O-])c1cnccc1Nc1nc(-c2cccnc2)nc2ccccc12 [KP-92]
IC50 [1]: ~8 µM
toxicity LC50 (µM) [2]: non-toxic

NC(=O)c1ccc(Nc2nc(-c3ccncc3)nc3ccccc23)cc1 [AMR-556]
IC50 [1]: > 10 µM
toxicity LC50 (µM) [2]: non-toxic

COc1ccc(Nc2nc(Cl)nc3ccccc23)cn1 [KP-288]
IC50 [1]: > 10 µM
toxicity LC50 (µM) [2]: non-toxic

CNc1ccc(F)cc1Nc1nc(-c2ccncc2)nc2ccccc12 [AMR-558]
IC50 [1]: > 10 µM
toxicity LC50 (µM) [2]: non-toxic

Fc1cccc(Nc2nc(-c3cccnc3)nc3ccccc23)c1 [KP-165]
IC50 [1]: > 10 µM
toxicity LC50 (µM) [2]: non-toxic

CNc1ccc(F)cc1Nc1nc(-c2cccnc2)nc2ccccc12 [AMR-560]
IC50 [1]: ~12 µM
toxicity LC50 (µM) [2]: non-toxic

NNC(=O)c1ccc(Nc2nc(-c3cccnc3)nc3ccccc23)cc1 [KP-242]
IC50 [1]: > 10 µM
toxicity LC50 (µM) [2]: non-toxic

CC(O)c1ccc(Nc2nc(-c3ccncc3)nc3ccccc23)cc1 (stereo not drawn) [AMR-566]
IC50 [1]: ~10 µM
toxicity LC50 (µM) [2]: non-toxic

CS(=O)(=O)c1ccc(Nc2nc(-c3ccncc3)nc3ccccc23)cc1 [AMR-551]
IC50 [1]: > 10 µM
toxicity LC50 (µM) [2]: non-toxic

c1cncc(-c2nc(NC3CC3)c3ccccc3n2)c1 [KP-216]
IC50 [1]: > 10 µM
toxicity LC50 (µM) [2]: non-toxic

C[S+]([O-])c1ccc(Nc2nc(-c3ccncc3)nc3ccccc23)cc1 (stereo not drawn) [AMR-573]
IC50 [1]: > 10 µM
toxicity LC50 (µM) [2]: non-toxic

COCCOc1cc2nc(-c3cccnc3)nc(Nc3ccc(C(=O)O)cc3O)c2cc1OCCOC [OSR-79 free base]
IC50 [1]: > 25 µM
toxicity LC50 (µM) [2]: non toxic

O=[N+]([O-])c1cc(Nc2ccnc(-c3cccnc3)n2)ccc1F [KP-43]
toxicity LC50 (µM) [2]: non-toxic

CC(=O)c1ccc(Nc2nc(-c3ccncc3)nc3ccccc23)cc1 [AMR-535]
IC50 [1]: < 5 µM
toxicity LC50 (µM) [2]: non-toxic

O=S(=O)(c1ccc(Nc2nc(-c3cccnc3)nc3ccccc23)cc1)c1nccs1 [KP-270]
IC50 [1]: > 10 µM
toxicity LC50 (µM) [2]: non-toxic

CC(C)(C)Oc1nc(-c2cccnc2)nc2ccccc12 [OSR-285]
IC50 [1]: > 10 µM
toxicity LC50 (µM) [2]: non-toxic

CCOC(=O)N1CCC(Nc2nc(-c3ccncc3)nc3ccccc23)CC1 [AMR-577]
IC50 [1]: > 10 µM
toxicity LC50 (µM) [2]: non-toxic

CN(C)c1nc(-c2cccnc2)nc2ccc(O)cc12 [OSR-242X]
pIC50 ([1]; Table 4, cells infected with wild type NL4.3 HIV-1, read-out: tissue culture IC50): 6.00 to 6.30
toxicity LC50 (µM) [2]: non-toxic

Fc1cc(Nc2nc(-c3cccnc3)nc3ccccc23)c(F)c(F)c1F [KP-98]
IC50 [1]: ~15 µM
toxicity LC50 (µM) [2]: non-toxic

COc1cc2nc(Nc3cc(F)c(F)c(F)c3)nc(Nc3cc(F)c(F)c(F)c3)c2cc1OC [KP-272]
IC50 [1]: < 5 µM
toxicity LC50 (µM) [2]: non-toxic

c1cncc(-c2nc(N3CCOCC3)c3ccccc3n2)c1 [KP-190]
IC50 [1]: > 10 µM
toxicity LC50 (µM) [2]: non-toxic

O=[N+]([O-])c1ccc(Nc2ccnc(-c3cccnc3)n2)c(F)c1 [KP-34]
IC50 [1]: > 25 µM
toxicity LC50 (µM) [2]: non-toxic

Fc1cc(Nc2nc(Cl)nc3ccccc23)cc(F)c1F [KP-187]
IC50 [1]: > 10 µM
toxicity LC50 (µM) [2]: non-toxic

O=[N+]([O-])c1cc(Nc2nc(-c3cccnc3)nc3ccccc23)ccc1F [AMR.425]
pIC50 [3]: 5.15
toxicity LC50 (µM) [2]: non toxic

Fc1ccc(Nc2nc(-c3cccnc3)nc3ccccc23)cc1F [KP-271]
IC50 [1]: ~10 µM
toxicity LC50 (µM) [2]: non-toxic

Fc1cc(Nc2nc(Nc3cc(F)c(F)c(F)c3)c3ccccc3n2)cc(F)c1F [KP-265]
IC50 [1]: ~10 µM
toxicity LC50 (µM) [2]: non-toxic

Cc1c(CO)sc2nc(-c3cccnc3)nc(Nc3cc(F)c(F)c(F)c3)c12 [KP-233]
IC50 [1]: > 10 µM
toxicity LC50 (µM) [2]: non-toxic

COc1ccc(Nc2nc(-c3cccnc3)nc3ccccc23)cn1 [KP-283]
IC50 [1]: > 10 µM
toxicity LC50 (µM) [2]: non-toxic

CCN(CC)c1nc(-c2cccnc2)nc2ccccc12 [KP-237]
IC50 [1]: > 10 µM
toxicity LC50 (µM) [2]: non-toxic

Fc1cc(F)c(Nc2nc(-c3cccnc3)nc3ccccc23)cc1F [OSR-299]
IC50 [1]: ~10 µM
toxicity LC50 (µM) [2]: non-toxic

Fc1ccc(Nc2nc(-c3cccnc3)nc3ccccc23)c(F)c1F [OSR-298]
IC50 [1]: > 10 µM
toxicity LC50 (µM) [2]: non-toxic

Fc1cc(Nc2nc(-c3ccccc3)nc3ccccc23)cc(F)c1F [KP-153]
IC50 [1]: 10 to 15 µM
toxicity LC50 (µM) [2]: non-toxic

c1cncc(-c2nc(Oc3nc(-c4cccnc4)nc4ccccc34)c3ccccc3n2)c1 [OSA-296]
IC50 [1]: > 10 µM
toxicity LC50 (µM) [2]: non-toxic

N#Cc1ccc(Nc2nc(-c3ccncc3)nc3ccccc23)cc1 [AMR-549]
IC50 [1]: > 10 µM
toxicity LC50 (µM) [2]: non-toxic

Clc1ccc(Nc2nc(-c3cccnc3)nc3ccccc23)c(Cl)c1Cl [KP-260]
IC50 [1]: > 10 µM
toxicity LC50 (µM) [2]: non-toxic

Fc1ccc(Nc2nc(-c3cccnc3)nc3ccccc23)cc1Cl [KP-207]
IC50 [1]: > 10 µM
toxicity LC50 (µM) [2]: non-toxic

CSc1ccc(Nc2nc(-c3ccncc3)nc3ccccc23)cc1 [AMR-570]
IC50 [1]: ~10 µM
toxicity LC50 (µM) [2]: non-toxic

c1ccc(Sc2nc(-c3cccnc3)nc3ccccc23)cc1 [OSR-290]
IC50 [1]: > 10 µM
toxicity LC50 (µM) [2]: non-toxic

Fc1cc(Nc2ncnc3ccccc23)cc(F)c1F [KP-152]
IC50 [1]: ~17 µM
toxicity LC50 (µM) [2]: non-toxic

Fc1cc(Nc2nc(-c3cncc(Br)c3)nc3ccccc23)cc(F)c1F [KP-158 (old)]
IC50 [1]: 0.5 to 1 µM
toxicity LC50 (µM) [2]: non-toxic

Oc1ccc2nc(-c3cccnc3)nc(Nc3cc(F)c(F)c(F)c3)c2c1 [OSR-217]
toxicity LC50 (µM) [2]: non-toxic

Oc1ccc2nc(-c3cccnc3)nc(O)c2c1 [OSR-243]
toxicity LC50 (µM) [2]: non-toxic

O=[N+]([O-])c1ccc(Nc2cc(-c3cccnc3)nc3ccccc23)c(F)c1 [KP-94]
IC50 [1]: ~5 µM
